In patent publication US9000045B2, “CETP activity inhibitors” (Japan Tobacco Inc., priority 1997, dated 2015) one finds IC50 data, which are given here for 62 compounds.

Structures are written as SMILES.

For this assay, the target named is T1, CETP (Homo sapiens, UniProt P11597).
T1 sequence (P11597 18-493): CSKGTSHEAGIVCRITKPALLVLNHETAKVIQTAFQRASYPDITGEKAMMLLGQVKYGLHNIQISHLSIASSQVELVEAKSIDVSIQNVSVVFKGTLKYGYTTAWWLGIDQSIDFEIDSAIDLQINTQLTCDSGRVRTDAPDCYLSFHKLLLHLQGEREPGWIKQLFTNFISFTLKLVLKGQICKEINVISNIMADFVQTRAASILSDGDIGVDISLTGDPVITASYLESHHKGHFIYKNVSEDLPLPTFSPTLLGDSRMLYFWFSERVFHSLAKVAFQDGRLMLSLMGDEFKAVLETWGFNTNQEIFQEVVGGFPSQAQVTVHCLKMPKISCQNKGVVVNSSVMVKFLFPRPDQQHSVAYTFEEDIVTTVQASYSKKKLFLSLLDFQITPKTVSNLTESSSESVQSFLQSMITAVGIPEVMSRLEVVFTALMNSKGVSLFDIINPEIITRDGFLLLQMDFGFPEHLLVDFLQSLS
The assay can be described thus: In vitro CETP activity inhibitory effect in whole plasma. The following applies: plasma from healthy subjects containing [3H]CE-HDL3, incubated 4 hours at 37° C.; read-out: CETP activity inhibition in whole plasma IC50. Format: biochemical. On the set-up: Plasma containing [^3H]CE-HDL3 (600,000 dpm/ml) was prepared by adding donor lipoprotein obtained in the above (1) to plasma from healthy subjects; from tissue; host or cells: whole plasma of healthy subjects. How it is done: The fraction thus obtained was dialyzed against a PBS solution [10 mM Na2HPO4/10 mM NaH2PO4/0.15 M NaCl/1 mM EDTA (pH 7.4)]. Then, tritium-labeled cholesterol (10 nM) (50.3 Ci/mM) was dissolved in 95% ethanol and added gradually to the above HDL3 fraction under stirring. The solution was incubated for 18 hours at 37° C. […] After incubation, KBr was added and specific gravity was adjusted to d=1.21 g/ml. […] A sample solution was prepared using a 1:1 solution of N-methylpyrrolidone and polyethyleneglycol 400 as a solvent. […] Based on the inhibition rate (%) of CETP activity, IC50 value of each sample was calculated.
As a reminder, the IC50 is the point on the concentration scale where inhibition reaches its midpoint. Take `CC(C)CCC1(C(=O)Nc2ccccc2SC(=O)C2CCN(C)CC2)CCCC1` [Example 25-65]: the IC50 came out at 9 µM.

Take `CC1(C(=O)Nc2cc(C(F)(F)F)ccc2SC(=O)Cc2ccccc2)CCCCC1` [Example 25-66]: the concentration for half-maximal inhibition (IC50) came out at 35 µM.

Turning to `CC(C)(C)C(=O)Sc1ccc(C(F)(F)F)cc1NC(=O)C1(C)CCCCC1` [Example 25-67], the IC50 was determined as 40 µM.

With `CC(C)(C)C(=O)Sc1cc(F)c(F)cc1NC(=O)C1(C)CCCCC1` [Example 25-72], the IC50 stood at 27 µM.

Consider `CC(=O)N[C@@H](Cc1ccccc1)C(=O)Sc1cc(Cl)c(Cl)cc1NC(=O)C1(CCC(C)C)CCCCC1` [Example 25-76], for which the 50% inhibitory concentration (IC50) came out at 36 µM.

As for `CC(C)CCC1(C(=O)Nc2cc(Cl)c(Cl)cc2SC(=O)c2cccnc2)CCCCC1` [Example 25-77], the IC50 turned out to be 7 µM.

For the compound `CC(C)CCC1(C(=O)Nc2cc(Cl)c(Cl)cc2SC(=O)C2CCN(C)CC2)CCCCC1` [Example 25-78], the concentration for half-maximal inhibition (IC50) was found to be 11 µM.

`COC(=O)CCC(=O)Sc1cc(Cl)c(Cl)cc1NC(=O)C1(CCC(C)C)CCCCC1` [Example 25-79]: the IC50 turned out to be 6 µM.

As to `CC(C)CCC1(C(=O)Nc2cc(Cl)c(Cl)cc2SC(=O)CN(C)C)CCCCC1` [Example 25-80], the IC50 is 5 µM.

For the compound `CC(C)CCC1(C(=O)Nc2cc(Cl)c(Cl)cc2SC(=O)c2ccccc2)CCCCC1` [Example 25-81], the IC50 was found to be 14 µM.

Consider `CC(C)CCC1(C(=O)Nc2cc(Cl)c(Cl)cc2SC(=O)C2CCCCC2)CCCCC1` [Example 25-82], for which the IC50 is 17 µM.

`CC(C)CCC1(C(=O)Nc2cc(Cl)c(Cl)cc2SC(=O)Cc2ccccc2)CCCCC1` [Example 25-83]: the half-maximal inhibitory concentration (IC50) is 18 µM.

In the case of `CCC(=O)Sc1cc(Cl)c(Cl)cc1NC(=O)C1(CCC(C)C)CCCCC1` [Example 25-85], the half-maximal inhibitory concentration (IC50) amounted to 7 µM.

Consider `COCC(=O)Sc1cc(Cl)c(Cl)cc1NC(=O)C1(CCC(C)C)CCCCC1` [Example 25-86], for which the concentration for half-maximal inhibition (IC50) was found to be 10 µM.

Turning to `CC(C)CCC1(C(=O)Nc2cc(Cl)c(Cl)cc2SC(=O)c2cccnc2)CCCC1` [Example 25-87], the IC50 is 6 µM.

Consider `COC(=O)Sc1cc(Cl)c(Cl)cc1NC(=O)C1(CCC(C)C)CCCCC1` [Example 25-91], for which the half-maximal inhibitory concentration (IC50) stood at 22 µM.

`CCSC(=O)Sc1ccc(C(F)(F)F)cc1NC(=O)C1(C)CCCCC1` [Example 25-92]: the IC50 came to 19 µM.

For the compound `CC1(C(=O)Nc2cc(C(F)(F)F)ccc2SC(=O)Sc2ccccc2)CCCCC1` [Example 25-93], the IC50 was 22 µM.

On to `CC(C)(C)C(=O)Nc1ccccc1SC(=O)Sc1ccccc1NC(=O)C(C)(C)C` [Example 25-94], for which the IC50 was determined as 18 µM.

As for `CC1(C(=O)Nc2ccccc2SC(=O)Sc2ccccc2NC(=O)C2(C)CCCCC2)CCCCC1` [Example 25-95], the IC50 was 18 µM.

As to `CC1(C(=O)Nc2cc(C(F)(F)F)ccc2SC(=O)Sc2ccc(C(F)(F)F)cc2NC(=O)C2(C)CCCCC2)CCCCC1` [Example 25-96], the IC50 stood at 8 µM.

Consider `CC(C)CCC1(C(=O)Nc2ccccc2SC(=O)NC(C)C)CCCCC1` [Example 25-98], for which the IC50 came to 8 µM.

As for `CCNC(=O)Sc1ccccc1NC(=O)C1(CCC(C)C)CCCCC1` [Example 25-99], the half-inhibitory concentration (IC50) was 6 µM.

Turning to `CC(C)CCC1(C(=O)Nc2cc(Cl)c(Cl)cc2SC(=O)NC(C)C)CCCCC1` [Example 25-103], the IC50 stood at 12 µM.

Regarding `CCNC(=O)Sc1cc(Cl)c(Cl)cc1NC(=O)C1(CCC(C)C)CCCCC1` [Example 25-104], the IC50 came out at 9 µM.

On to `CC(C)(C)C(=O)Sc1ccccc1NC(=O)C1(C)CCCCC1` [Example 30], for which the IC50 worked out at 72 µM.

Take `CC(C)(C)C(=O)Nc1ccccc1SC(=O)Cc1ccccc1` [Example 31]: the IC50 came to 32 µM.

For `CC1(C(=O)Nc2ccccc2SC(=O)c2ccccc2)CCCCC1` [Example 32], the half-maximal inhibitory concentration (IC50) was 32 µM.

For `CC(C)CCC1(C(=O)Nc2ccccc2SC(=O)c2cccnc2)CCCCC1` [Example 35], the concentration for half-maximal inhibition (IC50) is 4 µM.

Take `CC(C)CCC1(C(=O)Nc2ccccc2SC(=O)C2CCCCC2)CCCCC1` [Example 43]: the IC50 was found to be 49 µM.

Turning to `CC(C)CCC1(C(=O)Nc2ccccc2SC(=O)c2ccccc2)CCCCC1` [Example 44], the IC50 stood at 23 µM.

As to `CC(C)CCC1(C(=O)Nc2cc(Cl)c(Cl)cc2SC(=O)C(C)(C)C)CCCCC1` [Example 50], the half-maximal inhibitory concentration (IC50) turned out to be 2 µM.

For `CC(C)CCC1(C(=O)Nc2cc(Cl)c(Cl)cc2SC(=O)C(C)(C)C)CCCC1` [Example 51], the IC50 came out at 16 µM.

Consider `CC(C)CCC1(C(=O)Nc2ccccc2SC(=O)CCCCC(=O)O)CCCCC1` [Example 53], for which the IC50 was determined as 8 µM.

With `COC(=O)Sc1ccccc1NC(=O)C1(CCC(C)C)CCCCC1` [Example 54], the IC50 was found to be 12 µM.

Turning to `CC1(C(=O)Nc2ccccc2SC(=O)Sc2ccccc2)CCCCC1` [Example 55], the 50% inhibitory concentration (IC50) came out at 65 µM.

In the case of `CC(C)(C)C(=O)Nc1cc(C(F)(F)F)ccc1SC(=O)C(C)(C)C` [Example 57], the IC50 turned out to be 41 µM.

Take `CC(C)C1(C(=O)Nc2cc(Cl)c(Cl)cc2SC(=O)C(C)(C)C)CCCCC1` [Example 66, S-[4,5-dichloro-2-(1-isopropylcyclohexanecarbonyl-amino)phenyl]2,2-dimethylthiopropionate]: the IC50 was found to be 7 µM.

As to `CC1(C(=O)Nc2cc(Cl)ccc2SC(=O)Cc2ccccc2)CCCCC1` [Example 66-3], the half-inhibitory concentration (IC50) was found to be 24 µM.

For the compound `CC(C)(C)C(=O)Sc1ccc(Cl)cc1NC(=O)C1(C)CCCCC1` [Example 66-4], the IC50 amounted to 28 µM.

With `CC(C)(C)C(=O)Sc1cc(Cl)c(Cl)cc1NC(=O)C1(C)CCCCC1` [Example 66-9], the IC50 came to 9 µM.

Regarding `CC(=O)N[C@@H](Cc1ccccc1)C(=O)Sc1cc(Cl)c(Cl)cc1NC(=O)C1(C)CCCCC1` [Example 66-10], the IC50 was 23 µM.

In the case of `CC(=O)N[C@H](Cc1ccccc1)C(=O)Sc1cc(Cl)c(Cl)cc1NC(=O)C1(C)CCCCC1` [Example 66-11], the half-maximal inhibitory concentration (IC50) amounted to 22 µM.

For `CC1(C(=O)Nc2cc(Cl)c(Cl)cc2SC(=O)[C@@H](N)Cc2ccccc2)CCCCC1` [Example 66-12], the 50% inhibitory concentration (IC50) worked out at 17 µM.

For the compound `CC(C)CC(CC(C)C)C(=O)Nc1cc(Cl)c(Cl)cc1SC(=O)C(C)(C)C` [Example 66-14], the concentration for half-maximal inhibition (IC50) stood at 11 µM.

Turning to `CCCC1(C(=O)Nc2cc(Cl)c(Cl)cc2SC(=O)C(C)(C)C)CCCCC1` [Example 66-16], the IC50 was found to be 8 µM.

`CC(C)(C)C(=O)Sc1cc(Cl)c(Cl)cc1NC(=O)C1C(C)(C)C1(C)C` [Example 66-17]: the IC50 was 18 µM.

With `CC(C)(C)C(=O)Sc1cc(Cl)c(Cl)cc1NC(=O)C1(C2CCCCC2)CCCCC1` [Example 66-18], the half-maximal inhibitory concentration (IC50) stood at 11 µM.

Regarding `CC(C)(C)C(=O)Sc1cc(Cl)c(Cl)cc1NC(=O)c1ccncc1` [Example 66-21], the IC50 amounted to 41 µM.

Turning to `CC(C)(C)C(=O)Sc1cc(Cl)c(Cl)cc1NC(=O)[C@]12CCCC[C@@H]1CCCC2` [Example 66-22], the 50% inhibitory concentration (IC50) was determined as 19 µM.

On to `CC(C)(C)C(=O)Sc1cc(Cl)c(Cl)cc1NC(=O)[C@]12CCCC[C@@H]1CCC2` [Example 66-23], for which the IC50 was 13 µM.

As for `CC(C)(C)C(=O)Sc1cc(Cl)c(Cl)cc1NC(=O)[C@@]12CCCC[C@@H]1CCC2` [Example 66-24], the concentration for half-maximal inhibition (IC50) was 12 µM.

With `CC(C)(C)C(=O)Sc1cc(Cl)c(Cl)cc1NC(=O)C1CCCCC1` [Example 66-25], the half-maximal inhibitory concentration (IC50) turned out to be 19 µM.

For `CC(C)(C)C(=O)Sc1cc(Cl)c(Cl)cc1NC(=O)C1CCC(C(C)(C)C)CC1` (centres unmarked) [Example 66-26], the IC50 was 8 µM.

For `CC(C)(C)C(=O)Sc1cc(Cl)c(Cl)cc1NC(=O)[C@H]1CC[C@H](C(C)(C)C)CC1` [Example 66-27], the IC50 was 9 µM.

`CC(C)(C)C(=O)Sc1cc(Cl)c(Cl)cc1NC(=O)CC1CCCCC1` [Example 66-28]: the IC50 is 18 µM.

As for `CCCCC1(C(=O)Nc2cc(Cl)c(Cl)cc2SC(=O)C(C)(C)C)CCCCC1` [Example 66-29], the IC50 worked out at 7 µM.

Take `CC(C)(C)C(=O)Sc1cc(Cl)c(Cl)cc1NC(=O)[C@H]1CC[C@H](C)CC1` [Example 66-30]: the half-maximal inhibitory concentration (IC50) worked out at 19 µM.

On to `CC(C)(C)C(=O)Sc1cc(Cl)c(Cl)cc1NC(=O)[C@H]1CC[C@H](C2CCCCC2)CC1` [Example 66-31], for which the half-maximal inhibitory concentration (IC50) was 27 µM.

On to `CC(C)[C@H]1CC[C@H](C(=O)Nc2cc(Cl)c(Cl)cc2SC(=O)C(C)(C)C)CC1` [Example 66-32], for which the concentration for half-maximal inhibition (IC50) is 22 µM.

Take `CCC[C@H]1CC[C@H](C(=O)Nc2cc(Cl)c(Cl)cc2SC(=O)C(C)(C)C)CC1` [Example 66-33]: the half-inhibitory concentration (IC50) stood at 19 µM.

Turning to `CCCCC[C@H]1CC[C@H](C(=O)Nc2cc(Cl)c(Cl)cc2SC(=O)C(C)(C)C)CC1` [Example 66-34], the half-maximal inhibitory concentration (IC50) amounted to 22 µM.
